Source: ChEMBL document CHEMBL4052759, “Discovery of DS79182026: A potent orally active hepcidin production inhibitor” (Bioorg Med Chem Lett, 2017)

Experiments:
[1] = target: Receptor-type tyrosine-protein kinase FLT3 (Homo sapiens) (UniProt P36888); assay: Inhibition of FLT3 (unknown origin) at 0.078 uM relative to control
[2] = target: Serine/threonine-protein kinase MARK1 (Homo sapiens) (UniProt Q9P0L2); assay: Inhibition of MARK1 (unknown origin) at 0.078 uM relative to control
[3] = target: Serine/threonine-protein kinase pim-2 (Homo sapiens) (UniProt Q9P1W9); assay: Inhibition of PIM2 (unknown origin) at 0.078 uM relative to control
[4] = target: RAF proto-oncogene serine/threonine-protein kinase (Homo sapiens) (UniProt P04049); assay: Inhibition of c-Raf (unknown origin) at 0.078 uM relative to control
[5] = target: Ribosomal protein S6 kinase alpha-1 (Homo sapiens) (UniProt Q15418); assay: Inhibition of RSK1 (unknown origin) at 0.078 uM relative to control
[6] = target: Receptor tyrosine-protein kinase erbB-4 (Homo sapiens) (UniProt Q15303); assay: Inhibition of HER4 (unknown origin) at 0.49 uM relative to control
[7] = system: Tyrosine-protein kinase ABL1 (Homo sapiens), P00519 [E255K]; assay: Inhibition of ABL1 E255K mutant (unknown origin) at 0.49 uM relative to control
[8] = target: Protein kinase C theta type (Homo sapiens) (UniProt Q04759); assay: Inhibition of PKC-theta (unknown origin) at 0.49 uM relative to control
[9] = system: Tyrosine-protein kinase ABL1 (Homo sapiens), P00519 [G250E]; assay: Inhibition of ABL1 G250E mutant (unknown origin) at 0.49 uM relative to control
[10] = target: Serine/threonine-protein kinase 10 (Homo sapiens) (UniProt O94804); assay: Inhibition of LOK (unknown origin) at 0.49 uM relative to control
[11] = system: Fibroblast growth factor receptor 3 (Homo sapiens), P22607 [K650M]; assay: Inhibition of FGFR3 K650M mutant (unknown origin) at 0.49 uM relative to control
[12] = target: Casein kinase I isoform delta (Homo sapiens) (UniProt P48730); assay: Inhibition of CK1-delta (unknown origin) at 0.49 uM relative to control
[13] = target: Calcium/calmodulin-dependent protein kinase type II subunit gamma (Homo sapiens) (UniProt Q13555); assay: Inhibition of CaMK2-gamma (unknown origin) at 0.49 uM relative to control
[14] = target: Ephrin type-B receptor 1 (Homo sapiens) (UniProt P54762); assay: Inhibition of EPHB1 (unknown origin) at 0.49 uM relative to control
[15] = target: Glycogen synthase kinase-3 beta (Homo sapiens) (UniProt P49841); assay: Inhibition of GSK3b (unknown origin) at 0.49 uM relative to control
[16] = target: Casein kinase I isoform gamma-2 (Homo sapiens) (UniProt P78368); assay: Inhibition of Casein kinase 1g2 (unknown origin) at 0.49 uM relative to control
[17] = target: Serine/threonine-protein kinase Sgk3 (Homo sapiens) (UniProt Q96BR1); assay: Inhibition of SGK3 (unknown origin) at 0.49 uM relative to control
[18] = target: Proto-oncogene tyrosine-protein kinase Src (Homo sapiens) (UniProt P12931); assay: Inhibition of SRC (unknown origin) at 0.49 uM relative to control
[19] = target: ALK tyrosine kinase receptor (Homo sapiens) (UniProt Q9UM73); assay: Inhibition of ALK (unknown origin) at 0.49 uM relative to control
[20] = target: Aurora kinase B (Homo sapiens) (UniProt Q96GD4); assay: Inhibition of AurB (unknown origin) at 0.49 uM relative to control
[21] = target: Tyrosine-protein kinase FRK (Homo sapiens) (UniProt P42685); assay: Inhibition of FRK (unknown origin) at 0.49 uM relative to control
[22] = target: Tyrosine-protein kinase Lck (Homo sapiens) (UniProt P06239); assay: Inhibition of LCK (unknown origin) at 0.49 uM relative to control
[23] = system: Tyrosine-protein kinase ABL1 (Homo sapiens), P00519 [Q252H]; assay: Inhibition of Abl Q252H mutant (unknown origin) at 0.49 uM relative to control
[24] = target: Homeodomain-interacting protein kinase 4 (Homo sapiens) (UniProt Q8NE63); assay: Inhibition of HIPK4 (unknown origin) at 0.49 uM relative to control
[25] = target: Mitogen-activated protein kinase 14 (Homo sapiens) (UniProt Q16539); assay: Inhibition of p38a (unknown origin) at 0.49 uM relative to control
[26] = target: Mitogen-activated protein kinase 11 (Homo sapiens) (UniProt Q15759); assay: Inhibition of p38-beta2 (unknown origin) at 0.49 uM relative to control
[27] = target: Proto-oncogene tyrosine-protein kinase receptor Ret (Homo sapiens) (UniProt P07949); assay: Inhibition of RET (unknown origin) at 0.45 uM relative to control
[28] = target: Homeodomain-interacting protein kinase 2 (Homo sapiens) (UniProt Q9H2X6); assay: Inhibition of HIPK2 (unknown origin) at 0.45 uM relative to control
[29] = target: MAP/microtubule affinity-regulating kinase 4 (Homo sapiens) (UniProt Q96L34); assay: Inhibition of MARK4 (unknown origin) at 0.45 uM relative to control
[30] = target: Tyrosine-protein kinase receptor TYRO3 (Homo sapiens) (UniProt Q06418); assay: Inhibition of TYRO3 (unknown origin) at 0.45 uM relative to control
[31] = target: Ribosomal protein S6 kinase alpha-4 (Homo sapiens) (UniProt O75676); assay: Inhibition of MSK2 (unknown origin) at 0.45 uM relative to control
[32] = target: Proto-oncogene tyrosine-protein kinase Src (Homo sapiens) (UniProt P12931); assay: Inhibition of SRC (unknown origin) at 0.45 uM relative to control
[33] = target: Casein kinase I isoform delta (Homo sapiens) (UniProt P48730); assay: Inhibition of CK1-delta (unknown origin) at 0.45 uM relative to control
[34] = target: SRSF protein kinase 3 (Homo sapiens) (UniProt Q9UPE1); assay: Inhibition of MSSK1 (unknown origin) at 0.45 uM relative to control
Sequence of SRSF protein kinase 3 (Homo sapiens) (Q9UPE1 whole entry): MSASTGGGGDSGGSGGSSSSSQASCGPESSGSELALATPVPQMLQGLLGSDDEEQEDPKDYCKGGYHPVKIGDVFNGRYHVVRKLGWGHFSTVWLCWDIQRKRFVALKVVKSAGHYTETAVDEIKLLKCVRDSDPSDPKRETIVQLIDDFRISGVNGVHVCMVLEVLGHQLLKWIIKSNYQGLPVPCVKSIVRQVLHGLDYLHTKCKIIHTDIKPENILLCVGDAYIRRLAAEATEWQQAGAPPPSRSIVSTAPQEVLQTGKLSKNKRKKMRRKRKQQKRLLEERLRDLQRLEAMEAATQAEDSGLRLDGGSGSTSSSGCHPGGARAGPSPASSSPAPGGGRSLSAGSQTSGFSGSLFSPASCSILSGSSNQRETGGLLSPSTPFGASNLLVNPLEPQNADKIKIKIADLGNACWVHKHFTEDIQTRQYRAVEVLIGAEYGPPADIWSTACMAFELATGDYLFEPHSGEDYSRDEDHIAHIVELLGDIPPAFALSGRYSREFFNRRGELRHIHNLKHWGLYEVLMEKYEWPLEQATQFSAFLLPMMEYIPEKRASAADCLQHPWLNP

Sequence of Casein kinase I isoform delta (Homo sapiens) (P48730 whole entry, looked up, canonical isoform): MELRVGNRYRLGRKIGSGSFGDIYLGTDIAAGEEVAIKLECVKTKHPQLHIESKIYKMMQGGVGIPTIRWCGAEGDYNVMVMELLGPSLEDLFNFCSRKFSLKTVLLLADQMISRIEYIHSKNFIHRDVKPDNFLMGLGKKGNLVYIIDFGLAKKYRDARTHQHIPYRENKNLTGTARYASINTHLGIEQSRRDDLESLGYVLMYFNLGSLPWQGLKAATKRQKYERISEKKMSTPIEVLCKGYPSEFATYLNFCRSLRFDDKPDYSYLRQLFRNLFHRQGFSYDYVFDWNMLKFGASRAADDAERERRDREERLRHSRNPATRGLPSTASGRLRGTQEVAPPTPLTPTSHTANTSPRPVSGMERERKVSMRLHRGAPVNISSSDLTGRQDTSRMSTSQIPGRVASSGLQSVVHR
Sequence of Proto-oncogene tyrosine-protein kinase Src (Homo sapiens) (P12931 2-536 limits assumed): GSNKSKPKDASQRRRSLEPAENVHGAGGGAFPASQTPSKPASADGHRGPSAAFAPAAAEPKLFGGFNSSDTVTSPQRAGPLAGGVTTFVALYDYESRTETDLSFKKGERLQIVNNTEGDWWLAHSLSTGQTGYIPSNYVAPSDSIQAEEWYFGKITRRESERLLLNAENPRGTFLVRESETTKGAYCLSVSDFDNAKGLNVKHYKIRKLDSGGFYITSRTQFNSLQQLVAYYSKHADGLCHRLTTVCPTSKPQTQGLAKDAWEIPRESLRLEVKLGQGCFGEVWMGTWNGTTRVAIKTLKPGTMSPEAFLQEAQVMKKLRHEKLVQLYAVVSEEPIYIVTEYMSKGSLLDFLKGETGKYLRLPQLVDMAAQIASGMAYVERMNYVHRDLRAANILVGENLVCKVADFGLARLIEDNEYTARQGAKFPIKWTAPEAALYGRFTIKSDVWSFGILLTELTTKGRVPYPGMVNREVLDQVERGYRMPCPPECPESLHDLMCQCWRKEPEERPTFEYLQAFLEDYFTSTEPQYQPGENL
Sequence of Ribosomal protein S6 kinase alpha-1 (Homo sapiens) (Q15418 whole entry): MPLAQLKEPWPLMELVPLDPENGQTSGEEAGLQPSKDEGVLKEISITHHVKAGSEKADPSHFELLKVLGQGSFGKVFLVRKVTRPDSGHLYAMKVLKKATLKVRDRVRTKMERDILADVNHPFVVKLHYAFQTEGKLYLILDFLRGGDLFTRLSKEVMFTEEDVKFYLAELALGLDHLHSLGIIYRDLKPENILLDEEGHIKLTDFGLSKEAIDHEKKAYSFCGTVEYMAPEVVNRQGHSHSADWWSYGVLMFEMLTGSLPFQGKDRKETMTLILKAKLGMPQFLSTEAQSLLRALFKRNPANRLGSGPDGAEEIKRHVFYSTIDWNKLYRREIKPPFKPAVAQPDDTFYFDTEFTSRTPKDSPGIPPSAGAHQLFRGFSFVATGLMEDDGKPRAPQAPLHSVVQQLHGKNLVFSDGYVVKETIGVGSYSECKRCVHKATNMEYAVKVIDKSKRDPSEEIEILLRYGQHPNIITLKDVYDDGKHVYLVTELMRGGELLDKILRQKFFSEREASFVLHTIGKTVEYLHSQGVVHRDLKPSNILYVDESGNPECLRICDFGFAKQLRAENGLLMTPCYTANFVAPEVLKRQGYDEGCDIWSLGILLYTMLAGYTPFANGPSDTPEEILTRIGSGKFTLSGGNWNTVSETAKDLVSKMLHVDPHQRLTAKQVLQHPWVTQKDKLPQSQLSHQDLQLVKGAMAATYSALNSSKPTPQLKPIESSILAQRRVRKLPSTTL
Sequence of Proto-oncogene tyrosine-protein kinase receptor Ret (Homo sapiens) (P07949 whole entry): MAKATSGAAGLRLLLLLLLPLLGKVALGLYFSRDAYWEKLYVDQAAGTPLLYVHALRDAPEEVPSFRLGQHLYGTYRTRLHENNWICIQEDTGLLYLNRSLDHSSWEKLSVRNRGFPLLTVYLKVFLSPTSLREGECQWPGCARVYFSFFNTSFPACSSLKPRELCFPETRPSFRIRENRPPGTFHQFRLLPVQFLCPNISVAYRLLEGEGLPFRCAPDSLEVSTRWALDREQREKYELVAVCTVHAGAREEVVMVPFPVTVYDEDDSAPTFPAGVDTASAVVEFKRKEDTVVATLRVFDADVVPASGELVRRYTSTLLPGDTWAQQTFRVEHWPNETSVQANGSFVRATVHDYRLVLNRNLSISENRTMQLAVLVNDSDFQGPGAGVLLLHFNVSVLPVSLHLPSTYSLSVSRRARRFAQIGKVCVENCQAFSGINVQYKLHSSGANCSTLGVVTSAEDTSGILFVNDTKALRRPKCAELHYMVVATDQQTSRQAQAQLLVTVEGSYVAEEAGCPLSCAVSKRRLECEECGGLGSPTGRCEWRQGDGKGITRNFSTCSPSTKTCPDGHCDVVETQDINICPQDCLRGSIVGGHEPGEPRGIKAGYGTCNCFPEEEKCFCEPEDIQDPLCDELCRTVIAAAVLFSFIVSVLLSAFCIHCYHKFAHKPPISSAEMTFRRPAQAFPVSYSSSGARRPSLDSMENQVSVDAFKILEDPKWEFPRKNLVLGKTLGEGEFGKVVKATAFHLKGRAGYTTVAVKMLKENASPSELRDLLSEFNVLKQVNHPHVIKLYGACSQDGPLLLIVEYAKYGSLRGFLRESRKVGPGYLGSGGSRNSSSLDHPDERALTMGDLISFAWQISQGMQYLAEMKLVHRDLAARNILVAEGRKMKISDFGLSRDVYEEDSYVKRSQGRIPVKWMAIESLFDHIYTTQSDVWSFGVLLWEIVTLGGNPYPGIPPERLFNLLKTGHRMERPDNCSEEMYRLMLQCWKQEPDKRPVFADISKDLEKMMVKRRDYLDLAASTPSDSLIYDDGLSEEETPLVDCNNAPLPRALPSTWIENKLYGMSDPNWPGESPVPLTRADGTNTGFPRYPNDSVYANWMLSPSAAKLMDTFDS
Sequence of ALK tyrosine kinase receptor (Homo sapiens) (Q9UM73 19-1620 limits assumed): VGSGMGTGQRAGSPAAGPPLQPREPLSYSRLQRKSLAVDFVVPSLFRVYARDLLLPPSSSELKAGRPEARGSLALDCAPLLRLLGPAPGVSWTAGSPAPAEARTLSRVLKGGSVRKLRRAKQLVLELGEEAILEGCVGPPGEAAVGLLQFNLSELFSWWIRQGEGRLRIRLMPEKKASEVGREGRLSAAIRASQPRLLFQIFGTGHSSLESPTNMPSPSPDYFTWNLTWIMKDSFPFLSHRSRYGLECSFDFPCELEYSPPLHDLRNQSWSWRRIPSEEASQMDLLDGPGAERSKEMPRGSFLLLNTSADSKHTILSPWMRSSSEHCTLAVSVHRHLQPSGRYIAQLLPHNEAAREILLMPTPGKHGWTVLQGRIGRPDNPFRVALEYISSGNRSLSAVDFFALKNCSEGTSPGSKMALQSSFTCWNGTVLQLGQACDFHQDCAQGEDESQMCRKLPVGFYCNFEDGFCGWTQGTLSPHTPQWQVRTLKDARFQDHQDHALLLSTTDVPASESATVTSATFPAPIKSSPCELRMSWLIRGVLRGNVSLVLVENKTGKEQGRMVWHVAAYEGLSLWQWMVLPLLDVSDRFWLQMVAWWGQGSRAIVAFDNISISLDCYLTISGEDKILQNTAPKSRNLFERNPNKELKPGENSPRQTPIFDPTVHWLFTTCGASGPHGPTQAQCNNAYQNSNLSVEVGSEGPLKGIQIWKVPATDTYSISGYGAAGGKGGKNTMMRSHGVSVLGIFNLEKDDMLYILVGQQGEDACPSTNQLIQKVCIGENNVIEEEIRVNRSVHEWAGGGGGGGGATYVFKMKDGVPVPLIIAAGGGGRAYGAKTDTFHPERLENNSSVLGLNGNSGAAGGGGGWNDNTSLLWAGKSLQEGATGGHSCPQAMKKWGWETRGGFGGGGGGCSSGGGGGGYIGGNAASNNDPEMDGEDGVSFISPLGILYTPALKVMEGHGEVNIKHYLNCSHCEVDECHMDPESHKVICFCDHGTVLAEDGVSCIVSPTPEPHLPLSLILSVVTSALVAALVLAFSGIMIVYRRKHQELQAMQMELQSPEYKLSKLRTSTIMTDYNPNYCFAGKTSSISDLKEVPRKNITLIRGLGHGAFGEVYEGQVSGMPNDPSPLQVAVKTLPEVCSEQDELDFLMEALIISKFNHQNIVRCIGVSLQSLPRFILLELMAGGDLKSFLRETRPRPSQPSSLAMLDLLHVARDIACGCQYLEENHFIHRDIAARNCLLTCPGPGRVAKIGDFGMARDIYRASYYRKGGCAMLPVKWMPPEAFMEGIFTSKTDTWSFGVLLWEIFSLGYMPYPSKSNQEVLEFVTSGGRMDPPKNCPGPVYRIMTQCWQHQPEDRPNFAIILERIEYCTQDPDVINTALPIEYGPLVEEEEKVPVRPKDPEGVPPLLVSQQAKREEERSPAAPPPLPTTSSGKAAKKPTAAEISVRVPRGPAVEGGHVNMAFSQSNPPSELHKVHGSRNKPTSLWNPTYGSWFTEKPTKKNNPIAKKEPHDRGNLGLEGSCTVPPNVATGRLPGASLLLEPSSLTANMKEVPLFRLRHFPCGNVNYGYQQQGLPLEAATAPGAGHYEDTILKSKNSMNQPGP

Work on `COC(=O)Nc1noc2cc(-c3c(-c4ccccn4)n[nH]c3C)ccc12` yielded an inhibition [1] of -0.3%, an inhibition [2] of 3.3% and an inhibition [3] of 1.7%. For the same compound, the inhibition [4] was 0.7% and the inhibition [5] was 0.3%.
In the case of `Cc1[nH]nc(C2CC2)c1-c1ccc2c(NC(=O)C3CC3)noc2c1`, the inhibition [6] was -10%, the inhibition [7] was 21.3% and the inhibition [8] was 6%. For the same compound, the inhibition [9] was 23.7%, the inhibition [10] was 9.7% and the inhibition [11] was 6.3%. It also gave an inhibition [12] of 6.7%, an inhibition [13] of 6% and an inhibition [14] of 1.3%. It also gave an inhibition [15] of 6.7%, an inhibition [16] of 1% and an inhibition [17] of 1.3%. For the same compound, the inhibition [18] was 5%, the inhibition [19] was 0.3% and the inhibition [20] was -6.3%. It also gave an inhibition [21] of 1.3%, an inhibition [22] of 5.7% and an inhibition [23] of 30.3%. It also gave an inhibition [24] of 1.7%, an inhibition [25] of -1.7% and an inhibition [26] of 0.7%.
`Cc1n[nH]c(C)c1-c1ccc2c(NC(=O)c3ccc(N4CCN(C)CC4)cc3)n[nH]c2c1` gave an inhibition [27] of 59%, an inhibition [28] of 5% and an inhibition [29] of 37%. For the same compound, the inhibition [30] was 13.3%, the inhibition [31] was -3.3% and the inhibition [32] was 51.7%. It also gave an inhibition [33] of 5% and an inhibition [34] of 2%.
